Test results published in US20250197414A1, “SALT FORM AND CRYSTAL FORM OF VANIN ENZYME INHIBITOR, METHOD FOR PREPARING SAME, AND USE THEREOF” (SHANGHAI MEIYUE BIOTECH DEVELOPMENT CO., LTD., priority 2022, published 2025).
Read-outs that look alike come from different tables or passages of the source.

Key:
Type in all cases: physicochemical
[1] = Solubility test of compound of formula I and its salts at 37° C.; conditions: for solubility at 1 h / solubility at 24 h: thermodynamic from solid; for solubility at 1 h / solubility at 24 h / Solubility (mg/mL) (1 h) / Solubility (mg/mL) (24 h): calculated as free base; for solubility at 1 h: read-out: Solubility (mg/mL) (1 h); for solubility at 24 h: read-out: Solubility (mg/mL) (24 h); for solubility (in words): water, pH 7.4 at 37° C.
Protocol: The solubility of the compound of formula I and the L-tartrate, fumarate, and D-malate thereof was studied in water, SGF, FaSSIF, FeSSIF, and pH 7.4 at 37° C.
Experimental method: 30 mg (in water) or 15 mg of the sample was weighed into a 4 mL vial, then 3 mL of the medium to be tested was added thereto, and the resulting mixture was stirred continuously at 37° C. 0.5 mL of the sample was collected at 1 hour and 24 hours, respectively, and centrifuged at 12,000 rpm for 5 minutes. The supernatant was diluted to an appropriate multiple with 50% acetonitrile and its concentration was determined.
Therefore, 13 mg of the fumarate of the compound of formula I was weighed into a 25 mL volumetric flask (approximately 10 mg added to the 25 mL volumetric flask, calculated as free base), dissolved in 50% acetonitrile aqueous solution and diluted to the scale, and two samples were prepared in parallel. STD-1 was diluted to 200 μg/mL, 50 μg/mL, and 10 μg/mL with 50% acetonitrile aqueous solution. 5 μL of the sample was injected, and the standard curve was plotted.

[2] = Hygroscopicity (dynamic vapor sorption classification)
Protocol: Approximately 10 mg of the sample was weighed at 25° C. under a 0% to 95% to 0% relative humidity (RH) cycle for testing the moisture absorption/desorption characteristics.

[3] = Stability test of mono-L-tartrate, fumarate and D-malate (related substances by HPLC); conditions: for Purity (HPLC): in % (unit assumed); for chemical stability: after accelerated high humidity and high temperature testing
Protocol: The stability of the mono-L-tartrate, fumarate, and D-malate of the compound of formula I obtained in examples 1 to 3 was studied. […]
Detection of related substances: Approximately 5 mg of the sample was weighed into a 40 mL sample vial, dissolved in 10 mL of 50% acetonitrile aqueous solution and diluted to the scale, and 5 μL of the sample was injected.

[4] = Stability study on crystal form A (related substances by HPLC, crystal form by XRPD)
Protocol: Detection method of stability sample related substances: Approximately 5 mg of the sample was weighed, added with 5 mL of 20% methanol, ultrasonicated for a few seconds so that the compound can be completely dissolved, and 5 μL of the sample was injected for testing of related substances.

[5] = pH 7.4 medium, aqueous buffer, pH 7.4, 37° C.
[6] = simulated gastric fluid, SGF, 37° C.

Structure (SMILES): O=C(c1ccc(N[C@@H]2CCc3ncccc32)nc1)N1CCC2(CCOCC2)C1 [Compound of formula I]
- Final pH ([1]; FaSSIF, 37° C.): 6.38
- Sample appearance ([1]; FaSSIF, 37° C.): Clarified solution
- Final pH ([1]; FeSSIF, 37° C.): 4.99
- Sample appearance ([1]; FeSSIF, 37° C.): Clarified solution
- Final pH ([1]; SGF, 37° C.): 1.37
- Sample appearance ([1]; SGF, 37° C.): Clarified solution
- Final pH ([1]; Water, 37° C.): 7.32
- Sample appearance ([1]; Water, 37° C.): Clarified solution
- Final pH ([1]; pH 7.4, 37° C.): 7.56
- Sample appearance ([1]; pH 7.4, 37° C.): Clarified solution
- solubility at 1 h [1, 5]: 5.11 mg/mL
- solubility at 24 h [1, 5]: 5.2 mg/mL
- solubility at 1 h [1, 6]: 5.23 mg/mL
- solubility at 24 h [1, 6]: 5.39 mg/mL
- solubility at 1 h ([1]; FaSSIF, 37° C.): 5.1 mg/mL
- solubility at 24 h ([1]; FaSSIF, 37° C.): 5.22 mg/mL
- solubility at 1 h ([1]; FeSSIF, 37° C.): 5.46 mg/mL
- solubility at 24 h ([1]; FeSSIF, 37° C.): 5.33 mg/mL
- solubility at 1 h ([1]; Water, 37° C.): 10.6 mg/mL
- solubility at 24 h ([1]; Water, 37° C.): 10.8 mg/mL
- solubility (in words) ([1]; SGF, FaSSIF, FeSSIF): good solubility
- hygroscopicity [2]: highly hygroscopic

Structure (SMILES): O=C(O)CC(O)C(=O)O.O=C(c1cnc(NC2CCc3ncccc32)nc1)N1CCC2(CCOCC2)C1 [D-malate of compound of formula I]
- Total impurities % ([3]; 40° C./75% RH-closed-20 d): 0.09%
- Purity (HPLC) ([3]; 40° C./75% RH-closed-20 d): 99.91
- Total impurities % ([3]; 40° C./75% RH-open-20 d): 0.10%
- Purity (HPLC) ([3]; 40° C./75% RH-open-20 d): 99.90
- Total impurities % ([3]; 60° C.-open-20 d): 0.18%
- Purity (HPLC) ([3]; 60° C.-open-20 d): 99.82
- Total impurities % ([3]; Initial): 0.11%
- Purity (HPLC) ([3]; Initial): 99.89
- chemical stability [3]: good chemical stability
- Sample appearance ([1]; FaSSIF, 37° C.): Clarified solution
- Solubility (mg/mL) (1 h) ([1]; FaSSIF, 37° C.): 5.26 mg/mL
- Solubility (mg/mL) (24 h) ([1]; FaSSIF, 37° C.): 5.36 mg/mL
- Sample appearance ([1]; FeSSIF, 37° C.): Clarified solution
- Solubility (mg/mL) (1 h) ([1]; FeSSIF, 37° C.): 5.31 mg/mL
- Solubility (mg/mL) (24 h) ([1]; FeSSIF, 37° C.): 5.28 mg/mL
- Sample appearance ([1]; SGF, 37° C.): Clarified solution
- Solubility (mg/mL) (1 h) ([1]; SGF, 37° C.): 5.36 mg/mL
- Solubility (mg/mL) (24 h) ([1]; SGF, 37° C.): 5.37 mg/mL
- Final pH ([1]; Water, 37° C.): 3.75
- Sample appearance ([1]; Water, 37° C.): Clarified solution
- Solubility (mg/mL) (1 h) ([1]; Water, 37° C.): 10.60 mg/mL
- Solubility (mg/mL) (24 h) ([1]; Water, 37° C.): 10.76 mg/mL
- Sample appearance ([1]; pH 7.4, 37° C.): Clarified solution
- Solubility (mg/mL) (1 h) ([1]; pH 7.4, 37° C.): 5.54 mg/mL
- Solubility (mg/mL) (24 h) ([1]; pH 7.4, 37° C.): 5.53 mg/mL
- solubility (in words) ([1]; SGF, FaSSIF, FeSSIF): good solubility

Structure (SMILES): O=C(O)C(O)C(O)C(=O)O.O=C(c1cnc(NC2CCc3ncccc32)nc1)N1CCC2(CCOCC2)C1 (centres unmarked) [crystal form A]
- Individual impurities % ([4]; 40° C./75% RH-closed-2 wks): 0.04%
- Purity % ([4]; 40° C./75% RH-closed-2 wks): 99.92%
- Total impurities % ([4]; 40° C./75% RH-closed-2 wks): 0.08%
- Individual impurities % ([4]; 40° C./75% RH-open-2 wks): 0.06%
- Purity % ([4]; 40° C./75% RH-open-2 wks): 99.89%
- Total impurities % ([4]; 40° C./75% RH-open-2 wks): 0.11%
- Individual impurities % ([4]; 60° C.-open-2 wks): 0.06%
- Purity % ([4]; 60° C.-open-2 wks): 99.87%
- Total impurities % ([4]; 60° C.-open-2 wks): 0.13%
- Individual impurities % ([4]; 80% RH-open-2 wks): 0.05%
- Purity % ([4]; 80% RH-open-2 wks): 99.90%
- Total impurities % ([4]; 80% RH-open-2 wks): 0.10%
- Individual impurities % ([4]; 92.5% RH-open-2 wks): 0.06%
- Purity % ([4]; 92.5% RH-open-2 wks): 99.89%
- Total impurities % ([4]; 92.5% RH-open-2 wks): 0.11%
- Individual impurities % ([4]; Initial): 0.04%
- Purity % ([4]; Initial): 99.92%
- Total impurities % ([4]; Initial): 0.08%
- change of crystal form ([4]; at 60° C. under high humidity conditions of 80% RH): has not changed
- crystal form obtained after exposure ([4]; exposed to 92.5% RH for 3 days): crystal form B
- stability (in words) ([4]; high temperature and high humidity conditions): good stability

Structure (SMILES): O=C(O)C=CC(=O)O.O=C(c1cnc(NC2CCc3ncccc32)nc1)N1CCC2(CCOCC2)C1 (centres unmarked) [Fumarate of compound of formula I]
- Total impurities % ([3]; 40° C./75% RH-closed-2 wks): 0.30%
- Purity (HPLC) ([3]; 40° C./75% RH-closed-2 wks): 99.70
- Total impurities % ([3]; 40° C./75% RH-open-2 wks): 0.31%
- Purity (HPLC) ([3]; 40° C./75% RH-open-2 wks): 99.69
- Total impurities % ([3]; 60° C.-open-2 wks): 0.32%
- Purity (HPLC) ([3]; 60° C.-open-2 wks): 99.68
- Total impurities % ([3]; Initial): 0.31%
- Purity (HPLC) ([3]; Initial): 99.69
- chemical stability [3]: good chemical stability
- Sample appearance ([1]; FaSSIF, 37° C.): Clarified solution
- Solubility (mg/mL) (1 h) ([1]; FaSSIF, 37° C.): 5.44 mg/mL
- Solubility (mg/mL) (24 h) ([1]; FaSSIF, 37° C.): 5.57 mg/mL
- Sample appearance ([1]; FeSSIF, 37° C.): Clarified solution
- Solubility (mg/mL) (1 h) ([1]; FeSSIF, 37° C.): 5.75 mg/mL
- Solubility (mg/mL) (24 h) ([1]; FeSSIF, 37° C.): 5.63 mg/mL
- Sample appearance ([1]; SGF, 37° C.): Clarified solution
- Solubility (mg/mL) (1 h) ([1]; SGF, 37° C.): 5.37 mg/mL
- Solubility (mg/mL) (24 h) ([1]; SGF, 37° C.): 5.46 mg/mL
- Final pH ([1]; Water, 37° C.): 3.32
- Sample appearance ([1]; Water, 37° C.): Clarified solution
- Solubility (mg/mL) (1 h) ([1]; Water, 37° C.): 11.05 mg/mL
- Solubility (mg/mL) (24 h) ([1]; Water, 37° C.): 11.37 mg/mL
- Sample appearance ([1]; pH 7.4, 37° C.): Clarified solution
- Solubility (mg/mL) (1 h) ([1]; pH 7.4, 37° C.): 5.65 mg/mL
- Solubility (mg/mL) (24 h) ([1]; pH 7.4, 37° C.): 5.61 mg/mL
- solubility (in words) ([1]; SGF, FaSSIF, FeSSIF): good solubility

Structure (SMILES): O=C(c1cnc(N[C@@H]2CCc3ncccc32)nc1)N1CCC2(CCOCC2)C1 [Mono-L-tartrate of compound of formula I]
- Total impurities % ([3]; 40° C./75% RH-closed-2 wks): 0.06%
- Purity (HPLC) ([3]; 40° C./75% RH-closed-2 wks): 99.94
- Total impurities % ([3]; 40° C./75% RH-open-2 wks): 0.10%
- Purity (HPLC) ([3]; 40° C./75% RH-open-2 wks): 99.90
- Total impurities % ([3]; 60° C.-open-2 wks): 0.08%
- Purity (HPLC) ([3]; 60° C.-open-2 wks): 99.92
- Total impurities % ([3]; Initial): 0.06%
- Purity (HPLC) ([3]; Initial): 99.94
- chemical stability [3]: good chemical stability
- Final pH ([1]; FaSSIF, 37° C.): 3.84
- Sample appearance ([1]; FaSSIF, 37° C.): Clarified solution
- Sample appearance ([1]; FeSSIF, 37° C.): Clarified solution
- Sample appearance ([1]; SGF, 37° C.): Clarified solution
- Final pH ([1]; Water, 37° C.): 3.21
- Sample appearance ([1]; Water, 37° C.): Clarified solution
- Sample appearance ([1]; pH 7.4, 37° C.): Clarified solution
- solubility at 1 h [1, 5]: 5.09 mg/mL
- solubility at 24 h [1, 5]: 4.97 mg/mL
- solubility at 1 h [1, 6]: 5.19 mg/mL
- solubility at 24 h [1, 6]: 5.25 mg/mL
- solubility at 1 h ([1]; FaSSIF, 37° C.): 5.08 mg/mL
- solubility at 24 h ([1]; FaSSIF, 37° C.): 5.12 mg/mL
- solubility at 1 h ([1]; FeSSIF, 37° C.): 5.12 mg/mL
- solubility at 24 h ([1]; FeSSIF, 37° C.): 5.02 mg/mL
- solubility at 1 h ([1]; Water, 37° C.): 10.3 mg/mL
- solubility at 24 h ([1]; Water, 37° C.): 10.5 mg/mL
- solubility (in words) ([1]; SGF, FaSSIF, FeSSIF): good solubility
